Patent US9738634B2, “Heterocyclic amide compound and herbicide” (SYNGENTA PARTICIPATIONS AG, priority 2013, dated 2017)

Experiments:
[1] = system: corn; assay: Test Example 3: soil treatment, effect on crop; c: corn; type: in vivo; conditions: treatment dosage 320 g/ha
How it was run: (§1)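 Crop and weed responses were judged three weeks after a uniform surface spray of the water-diluted emulsion at the given g/ha rate. Seeds sat beneath about 1.5 cm of sterilized diluvial soil, and boxes stood in a greenhouse at 25 to 30° C.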

[2] = system: wild oat; assay: Test Example 4: weedkilling efficacy by foliar treatment; G: wild oat; type: in vivo; conditions: treatment dosage 320 g/ha
How it was run: (§2)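 Seeds are spot-sown into sterilized diluvial soil and covered with about 1.5 cm of soil. After 14 days' greenhouse growth at 25 to 30° C, plants are sprayed on stems and leaves with diluted emulsion at the stated g/ha rate, then scored at 3 weeks.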

[3] = system: wheat; assay: Test Example 4: foliar treatment, effect on crop; e: wheat; type: in vivo; conditions: treatment dosage 320 g/ha
How it was run: as §2

[4] = system: directly sown rice; assay: Test Example 3: soil treatment, effect on crop; b: directly sown rice; type: in vivo; conditions: treatment dosage 320 g/ha
How it was run: as §1

[5] = system: black-grass; assay: Test Example 3: weedkilling efficacy through soil treatment; H: black-grass; type: in vivo; conditions: treatment dosage 320 g/ha
How it was run: as §1

[6] = system: barnyard grass; assay: Test Example 2: weedkilling efficacy, growth period weed treatment in the submerged state; A: barnyard grass; type: in vivo; conditions: treatment dosage 320 g/ha
How it was run: (§3)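 First, alluvial soil in pots is flooded to 4 cm and mixed seed is sown. Next, plants grow in a greenhouse at 25 to 30° C until the 1-2 leaf stage. Then diluted emulsion is applied onto the water surface at the given g/ha rate, and injury is assessed after 3 weeks.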

[7] = system: black-grass; assay: Test Example 4: weedkilling efficacy by foliar treatment; H: black-grass; type: in vivo; conditions: treatment dosage 320 g/ha
How it was run: as §2

[8] = system: fig-leafed goosefoot; assay: Test Example 4: weedkilling efficacy by foliar treatment; M: fig-leafed goosefoot; type: in vivo; conditions: treatment dosage 320 g/ha
How it was run: as §2

[9] = system: rapeseed; assay: Test Example 4: foliar treatment, effect on crop; g: rapeseed; type: in vivo; conditions: treatment dosage 320 g/ha
How it was run: as §2

[10] = system: barnyard grass; assay: Test Example 4: weedkilling efficacy by foliar treatment; F: barnyard grass; type: in vivo; conditions: treatment dosage 320 g/ha
How it was run: as §2

[11] = system: wheat; assay: Test Example 3: soil treatment, effect on crop; e: wheat; type: in vivo; conditions: treatment dosage 320 g/ha
How it was run: as §1

[12] = system: oval-leafed pondweed; assay: Test Example 1: weedkilling efficacy, preemergent weed treatment in the submerged state; C: oval-leafed pondweed; type: in vivo; conditions: treatment dosage 320 g/ha
How it was run: (§4)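 Alluvial soil in Wagner pots flooded to 4 cm; barnyard grass, bulrush and oval-leafed pondweed seeds sown, then 2.5-leaf rice seedlings transplanted. Same day, emulsified compound diluted in water to set g/ha dosages and applied to water surface; greenhouse 25–30 °C, effect scored by criteria after 3 weeks.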

[13] = system: bulrush; assay: Test Example 2: weedkilling efficacy, growth period weed treatment in the submerged state; B: bulrush; type: in vivo; conditions: treatment dosage 320 g/ha
How it was run: as §3

[14] = system: redroot pigweed; assay: Test Example 4: weedkilling efficacy by foliar treatment; L: redroot pigweed; type: in vivo; conditions: treatment dosage 320 g/ha
How it was run: as §2

[15] = system: transplanted rice; assay: Test Example 1: preemergent weed treatment in the submerged state, effect on crop; a: transplanted rice; type: in vivo; conditions: treatment dosage 320 g/ha
How it was run: as §4

[16] = system: Italian ryegrass; assay: Test Example 3: weedkilling efficacy through soil treatment; I: Italian ryegrass; type: in vivo; conditions: treatment dosage 320 g/ha
How it was run: as §1

[17] = system: birds-eye speedwell; assay: Test Example 4: weedkilling efficacy by foliar treatment; p: birds-eye speedwell; type: in vivo; conditions: treatment dosage 320 g/ha
How it was run: as §2

[18] = system: soybean; assay: Test Example 3: soil treatment, effect on crop; d: soybean; type: in vivo; conditions: treatment dosage 320 g/ha
How it was run: as §1

[19] = system: beet; assay: Test Example 3: soil treatment, effect on crop; f: beet; type: in vivo; conditions: treatment dosage 320 g/ha
How it was run: as §1

[20] = system: common wind-grass; assay: Test Example 3: weedkilling efficacy through soil treatment; J: common wind-grass; type: in vivo; conditions: treatment dosage 320 g/ha
How it was run: as §1

[21] = system: crabgrass; assay: Test Example 4: weedkilling efficacy by foliar treatment; D: crabgrass; type: in vivo; conditions: treatment dosage 320 g/ha
How it was run: as §2

[22] = system: catchweed; assay: Test Example 3: weedkilling efficacy through soil treatment; O: catchweed; type: in vivo; conditions: treatment dosage 320 g/ha
How it was run: as §1

[23] = system: green foxtail; assay: Test Example 3: weedkilling efficacy through soil treatment; E: green foxtail; type: in vivo; conditions: treatment dosage 320 g/ha
How it was run: as §1

[24] = system: directly sown rice; assay: Test Example 4: foliar treatment, effect on crop; b: directly sown rice; type: in vivo; conditions: treatment dosage 320 g/ha
How it was run: as §2

[25] = system: crabgrass; assay: Test Example 3: weedkilling efficacy through soil treatment; D: crabgrass; type: in vivo; conditions: treatment dosage 320 g/ha
How it was run: as §1

[26] = system: soybean; assay: Test Example 4: foliar treatment, effect on crop; d: soybean; type: in vivo; conditions: treatment dosage 320 g/ha
How it was run: as §2

[27] = system: birds-eye speedwell; assay: Test Example 3: weedkilling efficacy through soil treatment; p: birds-eye speedwell; type: in vivo; conditions: treatment dosage 320 g/ha
How it was run: as §1

[28] = system: Italian ryegrass; assay: Test Example 4: weedkilling efficacy by foliar treatment; I: Italian ryegrass; type: in vivo; conditions: treatment dosage 320 g/ha
How it was run: as §2

[29] = system: green foxtail; assay: Test Example 4: weedkilling efficacy by foliar treatment; E: green foxtail; type: in vivo; conditions: treatment dosage 320 g/ha
How it was run: as §2

[30] = system: Indian mallow; assay: Test Example 3: weedkilling efficacy through soil treatment; K: Indian mallow; type: in vivo; conditions: treatment dosage 320 g/ha
How it was run: as §1

[31] = system: bulrush; assay: Test Example 1: weedkilling efficacy, preemergent weed treatment in the submerged state; B: bulrush; type: in vivo; conditions: treatment dosage 320 g/ha
How it was run: as §4

[32] = system: chickweed; assay: Test Example 3: weedkilling efficacy through soil treatment; N: chickweed; type: in vivo; conditions: treatment dosage 320 g/ha
How it was run: as §1

[33] = system: beet; assay: Test Example 4: foliar treatment, effect on crop; f: beet; type: in vivo; conditions: treatment dosage 320 g/ha
How it was run: as §2

[34] = system: wild oat; assay: Test Example 3: weedkilling efficacy through soil treatment; G: wild oat; type: in vivo; conditions: treatment dosage 320 g/ha
How it was run: as §1

[35] = system: oval-leafed pondweed; assay: Test Example 2: weedkilling efficacy, growth period weed treatment in the submerged state; C: oval-leafed pondweed; type: in vivo; conditions: treatment dosage 320 g/ha
How it was run: as §3

[36] = system: Indian mallow; assay: Test Example 4: weedkilling efficacy by foliar treatment; K: Indian mallow; type: in vivo; conditions: treatment dosage 320 g/ha
How it was run: as §2

[37] = system: rapeseed; assay: Test Example 3: soil treatment, effect on crop; g: rapeseed; type: in vivo; conditions: treatment dosage 320 g/ha
How it was run: as §1

[38] = system: fig-leafed goosefoot; assay: Test Example 3: weedkilling efficacy through soil treatment; M: fig-leafed goosefoot; type: in vivo; conditions: treatment dosage 320 g/ha
How it was run: as §1

[39] = system: catchweed; assay: Test Example 4: weedkilling efficacy by foliar treatment; O: catchweed; type: in vivo; conditions: treatment dosage 320 g/ha
How it was run: as §2

[40] = system: barnyard grass; assay: Test Example 1: weedkilling efficacy, preemergent weed treatment in the submerged state; A: barnyard grass; type: in vivo; conditions: treatment dosage 320 g/ha
How it was run: as §4

[41] = system: barnyard grass; assay: Test Example 3: weedkilling efficacy through soil treatment; F: barnyard grass; type: in vivo; conditions: treatment dosage 320 g/ha
How it was run: as §1

[42] = system: redroot pigweed; assay: Test Example 3: weedkilling efficacy through soil treatment; L: redroot pigweed; type: in vivo; conditions: treatment dosage 320 g/ha
How it was run: as §1

[43] = system: corn; assay: Test Example 4: foliar treatment, effect on crop; c: corn; type: in vivo; conditions: treatment dosage 320 g/ha
How it was run: as §2

[44] = system: chickweed; assay: Test Example 4: weedkilling efficacy by foliar treatment; N: chickweed; type: in vivo; conditions: treatment dosage 320 g/ha
How it was run: as §2

[45] = system: common wind-grass; assay: Test Example 4: weedkilling efficacy by foliar treatment; J: common wind-grass; type: in vivo; conditions: treatment dosage 320 g/ha
How it was run: as §2

## CCC1N=CSN1NC(=O)C(C)(C)N1COC(C)=C(c2ccsc2)C1=O (centres unmarked) [B-1-02, N-(3-ethyl-1,2,4-thiadiazol-2-yl)-2-methyl-2-[6-methyl-4-oxo-5-(thiophen-3-yl)-2H-1,3-oxazin-3(4H)-yl]propionamide]
other
  melting point: 171 to 172 °C

## CCCN(C(=O)C(C)(C)N1COCN(c2ccccc2)C1=O)c1cc(C(F)(F)F)ccn1 [A-5-05, 2-methyl-2-(4-oxo-5-phenyl-1,3,5-oxadiazinan-3-yl)-N-propyl-N-[4-(trifluoromethyl)-pyridin-2-yl]propionamide]
other
  melting point: 163 to 164 °C

## COc1cc(C(F)(F)F)cc(NC(=O)C(C)(C)N2COC(C)=C(c3cccnc3F)C2=O)n1 [B-2-14]
[1]
  c (corn) effect on crop grade: 0 (weed kill ratio 5% or less (practically no effect))
[2]
  G (wild oat) weedkilling efficacy grade: 4 (weed kill ratio 70% or more, less than 90%)
[3]
  e (wheat) effect on crop grade: 0 (weed kill ratio 5% or less (practically no effect))
[4]
  b (directly sown rice) effect on crop grade: 4 (weed kill ratio 70% or more, less than 90%)
[5]
  H (black-grass) weedkilling efficacy grade: 5 (weed kill ratio 90% or more, (practically complete withering))
[6]
  A (barnyard grass) weedkilling efficacy grade: 4 (weed kill ratio 70% or more, less than 90%)
[7]
  H (black-grass) weedkilling efficacy grade: 5 (weed kill ratio 90% or more, (practically complete withering))
[8]
  M (fig-leafed goosefoot) weedkilling efficacy grade: 4 (weed kill ratio 70% or more, less than 90%)
[9]
  g (rapeseed) effect on crop grade: 4 (weed kill ratio 70% or more, less than 90%)
[10]
  F (barnyard grass) weedkilling efficacy grade: 4 (weed kill ratio 70% or more, less than 90%)
[11]
  e (wheat) effect on crop grade: 0 (weed kill ratio 5% or less (practically no effect))
[12]
  C (oval-leafed pondweed) weedkilling efficacy grade: 4 (weed kill ratio 70% or more, less than 90%)
[13]
  B (bulrush) weedkilling efficacy grade: 4 (weed kill ratio 70% or more, less than 90%)
[14]
  L (redroot pigweed) weedkilling efficacy grade: 4 (weed kill ratio 70% or more, less than 90%)
[15]
  a (transplanted rice) effect on crop grade: 3 (weed kill ratio 40% or more, less than 70%)
[16]
  I (Italian ryegrass) weedkilling efficacy grade: 5 (weed kill ratio 90% or more, (practically complete withering))
[17]
  P (birds-eye speedwell) weedkilling efficacy grade: 4 (weed kill ratio 70% or more, less than 90%)
[18]
  d (soybean) effect on crop grade: 0 (weed kill ratio 5% or less (practically no effect))
[19]
  f (beet) effect on crop grade: 3 (weed kill ratio 40% or more, less than 70%)
[20]
  J (common wind-grass) weedkilling efficacy grade: 5 (weed kill ratio 90% or more, (practically complete withering))
[21]
  D (crabgrass) weedkilling efficacy grade: 4 (weed kill ratio 70% or more, less than 90%)
[22]
  O (catchweed) weedkilling efficacy grade: 4 (weed kill ratio 70% or more, less than 90%)
[23]
  E (green foxtail) weedkilling efficacy grade: 5 (weed kill ratio 90% or more, (practically complete withering))
[24]
  b (directly sown rice) effect on crop grade: 3 (weed kill ratio 40% or more, less than 70%)
[25]
  D (crabgrass) weedkilling efficacy grade: 5 (weed kill ratio 90% or more, (practically complete withering))
[26]
  d (soybean) effect on crop grade: 3 (weed kill ratio 40% or more, less than 70%)
[27]
  P (birds-eye speedwell) weedkilling efficacy grade: 4 (weed kill ratio 70% or more, less than 90%)
[28]
  I (Italian ryegrass) weedkilling efficacy grade: 5 (weed kill ratio 90% or more, (practically complete withering))
[29]
  E (green foxtail) weedkilling efficacy grade: 5 (weed kill ratio 90% or more, (practically complete withering))
[30]
  K (Indian mallow) weedkilling efficacy grade: 0 (weed kill ratio 5% or less (practically no effect))
[31]
  B (bulrush) weedkilling efficacy grade: 5 (weed kill ratio 90% or more, (practically complete withering))
[32]
  N (chickweed) weedkilling efficacy grade: 3 (weed kill ratio 40% or more, less than 70%)
[33]
  f (beet) effect on crop grade: 3 (weed kill ratio 40% or more, less than 70%)
[34]
  G (wild oat) weedkilling efficacy grade: 5 (weed kill ratio 90% or more, (practically complete withering))
[35]
  C (oval-leafed pondweed) weedkilling efficacy grade: 4 (weed kill ratio 70% or more, less than 90%)
[36]
  K (Indian mallow) weedkilling efficacy grade: 5 (weed kill ratio 90% or more, (practically complete withering))
[37]
  g (rapeseed) effect on crop grade: 1 (weed kill ratio 5% or more, less than 20%)
[38]
  M (fig-leafed goosefoot) weedkilling efficacy grade: 3 (weed kill ratio 40% or more, less than 70%)
[39]
  O (catchweed) weedkilling efficacy grade: 4 (weed kill ratio 70% or more, less than 90%)
[40]
  A (barnyard grass) weedkilling efficacy grade: 5 (weed kill ratio 90% or more, (practically complete withering))
[41]
  F (barnyard grass) weedkilling efficacy grade: 5 (weed kill ratio 90% or more, (practically complete withering))
[42]
  L (redroot pigweed) weedkilling efficacy grade: 3 (weed kill ratio 40% or more, less than 70%)
[43]
  c (corn) effect on crop grade: 3 (weed kill ratio 40% or more, less than 70%)
[44]
  N (chickweed) weedkilling efficacy grade: 4 (weed kill ratio 70% or more, less than 90%)
[45]
  J (common wind-grass) weedkilling efficacy grade: 5 (weed kill ratio 90% or more, (practically complete withering))
